Test results published in ChEMBL document CHEMBL3232938, “Design, synthesis, and biological evaluation of dihydroartemisinin-fluoroquinolone conjugates as a novel type of potential antitubercular agents” (2014).
In brackets after ≈: the same amount, converted by molar mass.

Assays:
Format in all cases: functional
Salmonella [1] = test: Antibacterial activity against Salmonella assessed as zone of inhibition at 2 ug/ml; details: read-out: DIZ
[2] = tested on: Mycobacterium tuberculosis; test: Antibacterial activity against 0.5 ug/ml Mycobacterium tuberculosis H37Rv ATCC 27294 assessed as growth inhibition after 7 days by microtiter plate assay; details: H37Rv ATCC 27294, 168 h
Escherichia coli [3] = test: Antibacterial activity against duck Escherichia coli assessed as zone of inhibition at 2 ug/ml; details: read-out: DIZ
Salmonella [4] = test: Antibacterial activity against Salmonella assessed as growth inhibition after 7 days by microtiter plate assay; details: 168 h
Pseudomonas aeruginosa [5] = test: Antibacterial activity against Pseudomonas aeruginosa assessed as zone of inhibition at 2 ug/ml; details: read-out: DIZ
Staphylococcus aureus [6] = test: Antibacterial activity against Staphylococcus aureus assessed as zone of inhibition at 2 ug/ml; details: read-out: DIZ
[7] = tested on: Mycobacterium tuberculosis; test: Antibacterial activity against 1 ug/ml Mycobacterium tuberculosis H37Rv ATCC 27294 assessed as growth inhibition after 7 days by microtiter plate assay; details: H37Rv ATCC 27294, 168 h
Pseudomonas aeruginosa [8] = test: Antibacterial activity against Pseudomonas aeruginosa assessed as growth inhibition after 7 days by microtiter plate assay; details: 168 h
Staphylococcus aureus [9] = test: Antibacterial activity against Staphylococcus aureus assessed as growth inhibition after 7 days by microtiter plate assay; details: 168 h
Escherichia coli [10] = test: Antibacterial activity against Escherichia coli assessed as growth inhibition after 7 days by microtiter plate assay; details: 168 h
Escherichia coli [11] = test: Antibacterial activity against Escherichia coli assessed as zone of inhibition at 2 ug/ml; details: read-out: DIZ
Escherichia coli [12] = test: Antibacterial activity against duck Escherichia coli assessed as growth inhibition after 7 days by microtiter plate assay; details: 168 h
[13] = tested on: Mycobacterium tuberculosis; test: Antibacterial activity against drug-sensitive 1 ug/ml Mycobacterium tuberculosis clinical isolate 760 assessed as growth inhibition after 7 days by microtiter plate assay; details: isolate 760, 168 h
[14] = tested on: Mycobacterium tuberculosis; test: Antibacterial activity against drug-sensitive 1 ug/ml Mycobacterium tuberculosis clinical isolate 821 assessed as growth inhibition after 7 days by microtiter plate assay; details: isolate 821, 168 h
[15] = tested on: Mycobacterium tuberculosis; test: Antibacterial activity against drug-sensitive 1 ug/ml Mycobacterium tuberculosis clinical isolate 753 assessed as growth inhibition after 7 days by microtiter plate assay; details: isolate 753, 168 h
[16] = tested on: Mycobacterium tuberculosis; test: Antibacterial activity against drug-sensitive 1 ug/ml Mycobacterium tuberculosis clinical isolate 741 assessed as growth inhibition after 7 days by microtiter plate assay; details: isolate 741, 168 h
[17] = tested on: Mycobacterium tuberculosis; test: Antibacterial activity against drug-sensitive 1 ug/ml Mycobacterium tuberculosis clinical isolate 758 assessed as growth inhibition after 7 days by microtiter plate assay; details: isolate 758, 168 h
[18] = tested on: Mycobacterium tuberculosis; test: Antibacterial activity against Mycobacterium tuberculosis H37Rv ATCC 27294 assessed as growth inhibition after 7 days by microtiter plate assay; details: H37Rv ATCC 27294, 168 h

SMILES	zone of inhibition at 2 µg/mL (Salmonella [1]) [mm]	MIC [2] [µM]	zone of inhibition at 2 µg/mL (Escherichia coli [3]) [mm]	MIC (Salmonella [4]) [µg/mL]	zone of inhibition at 2 µg/mL (Pseudomonas aeruginosa [5]) [mm]	zone of inhibition at 2 µg/mL (Staphylococcus aureus [6]) [mm]	MIC [7] [µM]	MIC (Pseudomonas aeruginosa [8]) [µg/mL]	MIC (Staphylococcus aureus [9]) [µg/mL]	MIC (Escherichia coli [10]) [µg/mL]	zone of inhibition at 2 µg/mL (Escherichia coli [11]) [mm]	MIC (Escherichia coli [12]) [µg/mL]	MIC [13] [µg/mL]	MIC [14] [µg/mL]	MIC [15] [µg/mL]	MIC [16] [µg/mL]	MIC [17] [µg/mL]	MIC [18] [µM]
C[C@H]1[C@@H](OC(=O)CCC(=O)N2CCN(c3cc4c(cc3F)c(=O)c(C(=O)O)cn4-c3ccc(F)cc3)CC2)O[C@@H]2O[C@@]3(C)CC[C@H]4[C@H](C)CC[C@@H]1[C@@]24OO3	< 5	> 5.32	< 5	16 (≈ 21.3 µM)	< 5	< 5	> 5.32	16 (≈ 21.3 µM)	8 (≈ 10.6 µM)	16 (≈ 21.3 µM)	< 5	8 (≈ 10.6 µM)	–	–	–	–	–	–
C[C@H]1[C@@H](OCCCN2CCN(c3cc4c(cc3F)c(=O)c(C(=O)O)cn4C3CC3)CC2)O[C@@H]2O[C@@]3(C)CC[C@H]4[C@H](C)CC[C@@H]1[C@@]24OO3	< 5	> 3.05	< 5	16 (≈ 24.4 µM)	< 5	< 5	> 3.05	16 (≈ 24.4 µM)	8 (≈ 12.2 µM)	16 (≈ 24.4 µM)	< 5	16 (≈ 24.4 µM)	–	–	–	–	–	–
C[C@H]1[C@@H](OCCNC2CCN(c3c(F)cc4c(=O)c(C(=O)O)cn(C5CC5)c4c3Cl)C2)O[C@@H]2O[C@@]3(C)CC[C@H]4[C@H](C)CC[C@@H]1[C@@]24OO3 (stereo not given in full)	12	0.092 (≈ 0.0622 µg/mL)	7	16 (≈ 23.7 µM)	< 5	< 5	0.185 (≈ 0.125 µg/mL)	16 (≈ 23.7 µM)	16 (≈ 23.7 µM)	8 (≈ 11.8 µM)	8	16 (≈ 23.7 µM)	0.125 (≈ 0.185 µM)	0.25 (≈ 0.37 µM)	0.125 (≈ 0.185 µM)	0.125 (≈ 0.185 µM)	0.125 (≈ 0.185 µM)	–
C[C@H]1[C@@H](OC(=O)CCC(=O)N2CCN(c3cc4c(cc3F)c(=O)c(C(=O)O)cn4C3CC3)CC2)O[C@@H]2O[C@@]3(C)CC[C@H]4[C@H](C)CC[C@@H]1[C@@]24OO3	< 5	2.07 (≈ 1.44 µg/mL)	< 5	16 (≈ 22.9 µM)	< 5	< 5	2.07 (≈ 1.44 µg/mL)	16 (≈ 22.9 µM)	16 (≈ 22.9 µM)	16 (≈ 22.9 µM)	9	16 (≈ 22.9 µM)	–	–	–	–	–	–
NC1CCN(c2c(F)cc3c(=O)c(C(=O)O)cn(C4CC4)c3c2Cl)C1 (stereo not given) [CLINAFLOXACIN]	28	–	43	4 (≈ 10.9 µM)	32	21	–	0.5 (≈ 1.37 µM)	2 (≈ 5.47 µM)	0.25 (≈ 0.683 µM)	25	4 (≈ 10.9 µM)	0.25 (≈ 0.683 µM)	1 (≈ 2.73 µM)	0.5 (≈ 1.37 µM)	1 (≈ 2.73 µM)	0.25 (≈ 0.683 µM)	0.43 (≈ 0.157 µg/mL)
C[C@H]1[C@@H](OCCCN2CCN(c3cc4c(cc3F)c(=O)c(C(=O)O)cn4-c3ccc(F)cc3)CC2)O[C@@H]2O[C@@]3(C)CC[C@H]4[C@H](C)CC[C@@H]1[C@@]24OO3	10	> 5.64	< 5	16 (≈ 22.5 µM)	< 5	< 5	> 5.64	16 (≈ 22.5 µM)	16 (≈ 22.5 µM)	16 (≈ 22.5 µM)	< 5	4 (≈ 5.64 µM)	–	–	–	–	–	–
CCn1cc(C(=O)O)c(=O)c2cc(F)c(N3CCN(CCCO[C@H]4O[C@@H]5O[C@@]6(C)CC[C@H]7[C@H](C)CC[C@@H]([C@H]4C)[C@@]57OO6)CC3)cc21	< 5	6.21 (≈ 4 µg/mL)	< 5	16 (≈ 24.9 µM)	< 5	< 5	6.21 (≈ 4 µg/mL)	16 (≈ 24.9 µM)	8 (≈ 12.4 µM)	16 (≈ 24.9 µM)	< 5	8 (≈ 12.4 µM)	–	–	–	–	–	–
CC1COc2c(N3CCN(C)CC3)c(F)cc3c(=O)c(C(=O)O)cn1c23 (stereo not given) [OFLOXACIN]	–	0.69 (≈ 0.249 µg/mL)	–	–	–	–	0.69 (≈ 0.249 µg/mL)	–	–	–	–	–	–	–	–	–	–	–
